Test results: US12195442B2, “(Hetero)arylimidazole compound and harmful organism control agent” (Nippon Soda Co., Ltd., priority 2018, dated 2025)

System: Mythimna separata
Experiment: Test Example 1: efficacy on Mythimna separata (treated artificial feed)
Format: in vivo
Details: 1 μl of 5% emulsion (I) mixed with 0.8 g artificial feed; second instar larvae; 25° C.; fifth day
Experimental: 5 parts of the (hetero)aryl imidazole compound of the present invention, 93.6 parts of dimethylformamide, and 1.4 parts of polyoxyethylene alkyl aryl ether were mixed and dissolved to prepare emulsion (I) containing 5% of the active ingredient.
For a control, 98.5 parts of dimethylformamide and 1.5 parts of polyoxyethylene alkyl aryl ether were mixed and dissolved to prepare emulsion (II).
An insecticidal rate was calculated according to the following expression: Insecticidal rate (%)=(The number of dead insects/The number of tested insects)×100
0.8 g of commercially available artificial feed (Insecta LFS, manufactured by Nosan Corp.) and 1 μl of the emulsion (I) were well mixed to obtain test feed.
A plastic test container (capacity: 1.4 ml) was packed with 0.2 g of the test feed per treatment plot. Then, two second instar larvae of Mythimna separata were inoculated to each treatment plot. A plastic lid was put on the test container so as to prevent escape of the second instar larvae of Mythimna separata. The container was placed in a thermostat chamber of 25° C. On the fifth day, the insecticidal rate and the food intake were examined. The test was conducted in duplicate.
The insecticidal rate and the food intake of a control plot were examined in the same way as in Test Example 1 except that the emulsion (I) was changed to the emulsion (II).

Compound | insecticidal rate or food intake as compared with the control plot
CCSc1cc(C2CC2)ccc1-c1ncc(C=C(Cl)C(F)(F)F)n1C (mixture of isomers) [d-6] | insecticidal rate of 100% for Mythimna separata or a food intake of 10% or less as compared with the control plot
CCS(=O)(=O)c1cc(C2CC2)ccc1-c1ncc(C=C(Cl)C(F)(F)F)n1C (mixture of isomers) [d-7] | insecticidal rate of 100% for Mythimna separata or a food intake of 10% or less as compared with the control plot
CCS(=O)(=O)c1cc(C2(C(N)=S)CC2)cnc1-c1ncc(C=C(Cl)C(F)(F)F)n1C (mixture of isomers) [d-18] | insecticidal rate of 100% for Mythimna separata or a food intake of 10% or less as compared with the control plot
CCS(=O)(=O)c1cc(C2(C)CC2)cnc1-c1ncc(C=C(Cl)C(F)(F)F)n1C (mixture of isomers) [d-20] | insecticidal rate of 100% for Mythimna separata or a food intake of 10% or less as compared with the control plot
CCS(=O)(=O)c1cc(C2(c3ccccn3)CC2)cnc1-c1ncc(C=C(Cl)C(F)(F)F)n1C (mixture of isomers) [d-21] | insecticidal rate of 100% for Mythimna separata or a food intake of 10% or less as compared with the control plot
CCS(=O)(=O)c1cc(C2CC2)cnc1-c1ncc(C=C(Br)C(F)(F)F)n1C (mixture of isomers) [d-24] | insecticidal rate of 100% for Mythimna separata or a food intake of 10% or less as compared with the control plot
Cn1c(C=C(Cl)C(F)(F)F)cnc1-c1ncc(C2CC2)cc1S(C)(=O)=O (mixture of isomers) [d-28] | insecticidal rate of 100% for Mythimna separata or a food intake of 10% or less as compared with the control plot
CCS(=O)(=O)c1cc(C2CCCC2)cnc1-c1ncc(C=C(Cl)C(F)(F)F)n1C (mixture of isomers) [d-32] | insecticidal rate of 100% for Mythimna separata or a food intake of 10% or less as compared with the control plot
CCS(=O)(=O)c1cc(C2CC2)cnc1-c1ncc(C(F)=C(F)OC(F)(F)F)n1C (mixture of isomers) [d-37] | insecticidal rate of 100% for Mythimna separata or a food intake of 10% or less as compared with the control plot
CCS(=O)(=O)c1cc(C2CC2)c[n+]([O-])c1-c1ncc(C=C(Cl)C(F)(F)F)n1C (mixture of isomers) [e-4] | insecticidal rate of 100% for Mythimna separata or a food intake of 10% or less as compared with the control plot
CCS(=O)(=O)c1cc(C2CC2)cnc1-c1ncc(C=CC(F)(F)C(F)(F)F)n1C [d-1] | insecticidal rate of 100% for Mythimna separata or a food intake of 10% or less as compared with the control plot
CCS(=O)(=O)c1cc(C2CC2)ccc1-c1ncc(C=CC(F)(F)C(F)(F)C(F)(F)F)n1C [d-3] | insecticidal rate of 100% for Mythimna separata or a food intake of 10% or less as compared with the control plot
CCS(=O)(=O)c1cc(C2CC2)cnc1-c1ncc(C=CC(F)(F)C(F)(F)C(F)(F)C(F)(F)F)n1C [d-4] | insecticidal rate of 100% for Mythimna separata or a food intake of 10% or less as compared with the control plot
CCS(=O)(=O)c1cc(C2CC2)ccc1-c1ncc(C=CC(F)(F)C(F)(F)F)n1C [d-5] | insecticidal rate of 100% for Mythimna separata or a food intake of 10% or less as compared with the control plot
CCS(=O)(=O)c1cc(C2CC2)cnc1-c1ncc(C=C(Cl)Cl)n1C [d-8] | insecticidal rate of 100% for Mythimna separata or a food intake of 10% or less as compared with the control plot
CCS(=O)(=O)c1cc(C2CC2)cnc1-c1ncc(C=C(Cl)C(F)(F)C(F)(F)F)n1C [d-12] | insecticidal rate of 100% for Mythimna separata or a food intake of 10% or less as compared with the control plot
CCS(=O)(=O)c1cc(C2CC2)cnc1-c1ncc(C=C(Cl)C(F)(F)C(F)(F)C(F)(F)F)n1C [d-13] | insecticidal rate of 100% for Mythimna separata or a food intake of 10% or less as compared with the control plot
CCS(=O)(=O)c1cc(C2CC2)cnc1-c1ncc(C=C(Cl)I)n1C [d-14] | insecticidal rate of 100% for Mythimna separata or a food intake of 10% or less as compared with the control plot
CCS(=O)(=O)c1cc(C2(C#N)CC2)cnc1-c1ncc(C=C(Cl)C(F)(F)F)n1C [d-15, 1-(6-(5-(2-chloro-3,3,3-trifluoroprop-1-en-1-yl)-1-methyl-1H-imidazol-2-yl)-5-(ethylsulfonyl)pyridin-3-yl)cyclopropane-1-carbonitrile] | insecticidal rate of 100% for Mythimna separata or a food intake of 10% or less as compared with the control plot
CCS(=O)(=O)c1cc(C2(C#N)CC2)cnc1-c1ncc(C=CC(F)(F)F)n1C [d-16] | insecticidal rate of 100% for Mythimna separata or a food intake of 10% or less as compared with the control plot
CCS(=O)(=O)c1cc(C2CC2)cnc1-c1ncc(C=C(C(F)(F)F)C(F)(F)F)n1C [d-19] | insecticidal rate of 100% for Mythimna separata or a food intake of 10% or less as compared with the control plot
CCS(=O)(=O)c1cc(C2(C#N)CC2)cnc1-c1ncc(C=CC(F)(F)C(F)(F)F)n1C [d-22] | insecticidal rate of 100% for Mythimna separata or a food intake of 10% or less as compared with the control plot
CCS(=O)(=O)c1cc(C2(C#N)CC2)cnc1-c1ncc(C=CC(F)(F)C(F)(F)C(F)(F)F)n1C [d-23] | insecticidal rate of 100% for Mythimna separata or a food intake of 10% or less as compared with the control plot
CCS(=O)(=O)c1cc(C2CC2)cnc1-c1ncc(C=C(F)C(F)(F)C(F)(F)C(F)(F)F)n1C [d-27] | insecticidal rate of 100% for Mythimna separata or a food intake of 10% or less as compared with the control plot
CCS(=O)(=O)c1cc(C2(C)CC2)cnc1-c1ncc(C=CC(F)(F)C(F)(F)C(F)(F)F)n1C [d-29] | insecticidal rate of 100% for Mythimna separata or a food intake of 10% or less as compared with the control plot
Cn1c(C=C(Cl)C(F)(F)C(F)(F)F)cnc1-c1ncc(C2CC2)cc1S(C)(=O)=O [d-30] | insecticidal rate of 100% for Mythimna separata or a food intake of 10% or less as compared with the control plot
CCS(=O)(=O)c1cc(C2CC2)cnc1-c1ncc(C=C(Cl)C(F)(F)F)n1C [d-33] | insecticidal rate of 100% for Mythimna separata or a food intake of 10% or less as compared with the control plot
CCS(=O)(=O)c1cc(C2CC2)cnc1-c1ncc(C(F)=C(F)OC(F)(F)C(F)(F)C(F)(F)F)n1C [d-35] | insecticidal rate of 100% for Mythimna separata or a food intake of 10% or less as compared with the control plot
CCS(=O)(=O)c1cc(C2CC2)c[n+]([O-])c1-c1ncc(C=C(F)C(F)(F)C(F)(F)F)n1C [e-1] | insecticidal rate of 100% for Mythimna separata or a food intake of 10% or less as compared with the control plot
